The values below come from patent US8603967B2, “Carrier peptide fragment and use thereof” (Toagosei Co., Ltd., priority 2009, dated 2013).

The subject of this test is Human neonate fibroblasts (ATCC cell line CCD-1079sk). Briefly: Evaluation of cell membrane permeability function (fluorescence antibody technique, confocal microscopy). The format is cell-based. The following applies: 3.5 μg/mL in liquid culture medium, cultured 2 hours, FIG. 2. As to the method:
Human neonate fibroblasts (ATCC cell line CCD-1079sk) were used as the eukaryotic cells, and the cell membrane permeability capability of the 2 samples (constructs for transferring a foreign substance) obtained in Example 1 above was investigated.
More specifically, approximately 2×10^4 cells were cultured on a collagen-coated S-well slide overnight at 37° C. in 5% CO2 using a liquid culture medium (Eagle's MEM medium: comprising 0.1 mM NeAA, 1 mM sodium pyruvate, Earle's BSS (product of GIBCO) with 10% FBS (product of GIBCO).
The purified polypeptides obtained above were added to the cell culture (1.5 μg/mL of the polypeptide of Sample No. 1 and 3.5 μg/mL of the polypeptide of Sample No. 2), and culturing was continued for another 2 hours.
Then the supernatant was removed, the abovementioned D-PBS was added, and the cells were rinsed 3 times therewith on ice. Next, ice-cold methanol was added and the samples were let stand for 10 min at −20° C. to fix the cells. Then the methanol was removed, PBS solution containing 5% normal goat serum (product of MBL) was added, and blocking was carried out at room temperature for 1 hour. […]

Take “Sample No. 2: Fusion polypeptide (SEQ ID NO: 7): Met, NoLS carrier KKRTLRKNDRKKR fused to N-terminal end of GFP, C-terminal polyhistidine tag”: the “location of the polypeptide transferred into the cells (nuclear translocation)” value (anti-GFP antibody staining merged with DAPI) was “transferred (translocated) to the nucleus and localized therein”. In addition, the “transfer of the polypeptide into the cells” value (anti-GFP antibody staining) is recorded as “transfer of the polypeptide into the cells can be seen”.
